Test in all cases: NCI-60 cell line screen, 48 h
Assay [1] has as its system COLO 205.
Assay [2] has as its system A549.
For assay [3], the system named is OVCAR-5.
The test system of assay [4] is OVCAR-4.
Assay [5] deals with CCRF-CEM.
In assay [6] the test system is RPMI-8226.
For assay [7], the system named is TK-10.
Assay [8] deals with SF-539.
The test system of assay [9] is HL-60.
Assay [10] relates to HCC 2998.
The subject of assay [11] is ACHN.
The test system of assay [12] is HCT-116.
The test system of assay [13] is NCI-H23.
Assay [14] concerns OVCAR-8.
The subject of assay [15] is SK-OV-3.
For assay [16], the system named is UACC-257.
The subject of assay [17] is IGROV-1.

SMILES strings stand for the structures.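 Where inhibition never reached the appropriate level, the endpoint shown equals the highest concentration tested. Otherwise, values were interpolated linearly from a five-concentration, 48-hour dose response in 96-well plates. GI50 = concentration required for 50% inhibition of growth.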 The source made the active and inactive calls. Cut-off read from the data, not from the text of the source: active = GI50 up to about 1.1 µM and inactive = higher.

With `CCSc1c2ccccc2c(-c2nc(F)nc(F)n2)n1CCc1ccccc1`, the GI50 is > 100 µM (inactive) in assay [1]; > 100 µM (inactive) in [2]; > 100 µM (inactive) in [3]; > 100 µM (inactive) in assay [4]; 36.2 µM (inactive) in [5]; > 100 µM (inactive) in assay [6]. Also, the GI50 in [7], in assay [8], in assay [9], in [10], in assay [11] and in assay [12] was > 100 µM (inactive) each time. The GI50 in [13] is > 100 µM (inactive).

Turning to `CC1(C)CC(=O)C(C(=O)C(=O)NC2=C(Cl)C(=O)c3ccccc3C2=O)C(=O)C1`, the GI50 in assay [1] is 38.7 µM (inactive); in assay [2], > 100 µM (inactive); in assay [3] it was > 100 µM (inactive); in [4] it was 63.5 µM (inactive); in assay [5] it was 36 µM (inactive); in assay [6], 34.8 µM (inactive). For the same compound, the GI50 in [14] was > 100 µM (inactive); in assay [7], > 100 µM (inactive); in assay [15] it was > 100 µM (inactive); in [8], > 100 µM (inactive); in assay [9], 20.1 µM (inactive); in [10], 45.4 µM (inactive). The GI50 in [16] was > 100 µM (inactive); in assay [17], > 100 µM (inactive); in assay [11], 91.4 µM (inactive); in assay [12], > 100 µM (inactive); in assay [13] it was > 100 µM (inactive).

Turning to `c1csc(C[N+]23CN4CN(CN(C4)C2)C3)c1`, the GI50 in [1] is 20 µM (inactive); in [2], 30 µM (inactive); in assay [3], 26.9 µM (inactive); in assay [4], 24.3 µM (inactive); in assay [5], 18.3 µM (inactive); in assay [6] it was 18.9 µM (inactive). For the same compound, the GI50 is 28.2 µM (inactive) in assay [14]; 26.4 µM (inactive) in assay [7]; > 100 µM (inactive) in assay [8]; 14.7 µM (inactive) in assay [9]; 19.3 µM (inactive) in [10]; > 100 µM (inactive) in assay [16]. Also, the GI50 is 29.9 µM (inactive) in [17], 37.5 µM (inactive) in assay [11], > 100 µM (inactive) in assay [12] and > 100 µM (inactive) in assay [13].

Consider `CC(=O)OC1CCCn2c1nc1c2C(=O)C(C)=C(N2CC2)C1=O` (stereo not drawn), for which the GI50 was 0.535 µM (active) in [1]; 0.316 µM (active) in assay [2]; 0.356 µM (active) in assay [3]; 0.773 µM (active) in [4]; 3.51 µM (inactive) in assay [5]; 1.07 µM (active) in [6]. Further, the GI50 in assay [14] is 0.388 µM (active); in assay [7], 2.75 µM (inactive); in assay [15] it was 0.364 µM (active); in [8] it was 0.519 µM (active); in [9] it was 2.41 µM (inactive); in assay [10], 0.232 µM (active). In addition, the GI50 in assay [16] was 0.242 µM (active); in assay [17] it was 0.962 µM (active); in [11] it was 0.254 µM (active); in assay [12] it was 0.409 µM (active); in [13], 0.0923 µM (active).

In the case of `COC(=O)CCC(=O)N1CC1C` (stereo not drawn), the GI50 in [1], in [2], in assay [3], in assay [4], in assay [5] and in assay [6] was > 100 µM (inactive) throughout. The GI50 in [14], in assay [7], in [15], in assay [8], in assay [9] and in assay [10] was > 100 µM (inactive) in each case. Besides, the GI50 in [16], in assay [17], in assay [11], in assay [12] and in assay [13] was > 100 µM (inactive) in each case.

Regarding `O=c1[nH]c(=O)n(C2OC(COP(=O)(O)OP(=O)(O)O)C(O)C2O)cc1F` (stereo not drawn), the GI50 in assay [1] was 1.57 µM (inactive); in assay [2], 0.119 µM (active); in [3] it was 7 µM (inactive); in assay [4] it was 1.23 µM (inactive); in assay [5], 0.817 µM (active); in assay [6], 0.436 µM (active). Also, the GI50 in [14] is 2.11 µM (inactive); in assay [7] it was 15.6 µM (inactive); in [15], 3.92 µM (inactive); in [8], 0.594 µM (active); in assay [9] it was 7.43 µM (inactive); in assay [10], 0.538 µM (active). Moreover, the GI50 is 6.11 µM (inactive) in [16]; 11.8 µM (inactive) in assay [17]; 0.178 µM (active) in assay [11]; 0.0643 µM (active) in [12]; 2.08 µM (inactive) in assay [13].

For the compound `CN1CCC(CN2c3ccccc3Sc3ccccc32)CC1`, the GI50 in assay [1] is 14.1 µM (inactive); in assay [2] it was 15.1 µM (inactive); in assay [3] it was 19.4 µM (inactive); in assay [4] it was 16.3 µM (inactive); in assay [5] it was 16.3 µM (inactive); in [6], 12.7 µM (inactive). The GI50 was 17.5 µM (inactive) in [14]; 15.7 µM (inactive) in assay [7]; 16.5 µM (inactive) in assay [15]; 14.9 µM (inactive) in assay [8]; 13 µM (inactive) in assay [9]; 12.9 µM (inactive) in assay [10]. For the same compound, the GI50 in assay [16] was 14.6 µM (inactive); in assay [17], 16.7 µM (inactive); in assay [11] it was 16 µM (inactive); in [12] it was 12.6 µM (inactive); in assay [13], 16.4 µM (inactive).

For `Cc1c(Cl)cccc1NC(=O)C(=O)C1C(=O)NC(=O)NC1=O`, the GI50 in assay [1], in assay [2], in assay [3], in assay [4], in assay [5] and in assay [6] was > 100 µM (inactive) each time. Moreover, the GI50 in [14], in [7], in assay [15], in assay [8], in assay [9] and in [10] was > 100 µM (inactive) throughout. The GI50 in [16], in assay [17], in assay [11], in assay [12] and in [13] was > 100 µM (inactive) throughout.

In the case of `O=C1C[C@@H]2CCCC[C@@H]2C12SCCS2`, the GI50 in assay [1], in assay [2], in [3], in assay [4], in [5] and in assay [6] was > 100 µM (inactive) each time. In addition, the GI50 in assay [14] is > 100 µM (inactive); in assay [7], > 100 µM (inactive); in [15], > 100 µM (inactive); in assay [8], > 100 µM (inactive); in assay [9] it was 80 µM (inactive); in assay [10], > 100 µM (inactive). For the same compound, the GI50 in [16] is > 100 µM (inactive); in assay [17], > 100 µM (inactive); in [11], > 100 µM (inactive); in assay [12], > 100 µM (inactive); in assay [13], 95.1 µM (inactive).

Turning to `COC1C2C[C@@H](O)CCC2C(C(=O)OCCl)C[C@H]1O` (stereo partly drawn), the GI50 in [1], in assay [2], in assay [4], in [5], in [6] and in assay [14] was > 100 µM (inactive) each time. The GI50 in assay [7], in [15], in [8], in assay [9], in assay [10] and in assay [16] was > 100 µM (inactive) throughout. Also, the GI50 in [17], in [11] and in assay [12] was > 100 µM (inactive) in each case.

Regarding `COCC12CC(CC1=O)C1C2ON2c3ccccc3C(=O)C12c1ccccc1` (stereo not drawn), the GI50 was > 100 µM (inactive) in [1]; > 100 µM (inactive) in [2]; 4.9 µM (inactive) in assay [4]; 61.2 µM (inactive) in assay [5]; 40.7 µM (inactive) in assay [6]; > 100 µM (inactive) in assay [14]. Besides, the GI50 in assay [15] is > 100 µM (inactive); in [8], > 100 µM (inactive); in assay [9], 76.4 µM (inactive); in assay [10], > 100 µM (inactive); in assay [16], 52 µM (inactive); in assay [17], > 100 µM (inactive). Further, the GI50 in [11], in [12] and in [13] was > 100 µM (inactive) throughout.

Consider `CSc1ccc(NC(=O)C2c3[nH]c4ccccc4c3C3CCC(C(C)(C)C)CC3C2C(=O)O)cc1` (stereo not drawn), for which the GI50 in assay [1] is 18 µM (inactive); in assay [2], 15.2 µM (inactive); in assay [4], 18.4 µM (inactive); in [5], 10.7 µM (inactive); in assay [6], 20.3 µM (inactive); in assay [14], 14.8 µM (inactive). Also, the GI50 in [15] was 16.5 µM (inactive); in assay [8], 19.7 µM (inactive); in [9] it was 9.42 µM (inactive); in assay [10] it was 33 µM (inactive); in assay [16] it was 34.1 µM (inactive); in [17], 17 µM (inactive). Further, the figures for the GI50 in assay [11], in assay [12] and in assay [13] were 15.3 µM (inactive), 14.4 µM (inactive) and 20.1 µM (inactive), respectively.

Source of the values: ChEMBL document CHEMBL1201862, “PubChem BioAssay data set” (2004).
